# Laboratory results: US20240270762A1, “PENICILLIN-BINDING PROTEIN INHIBITORS” (priority 2021, published 2024)
# Like-named read-outs stand apart in the source and are kept apart here.
# What was measured:
# A. baumannii CDC-0036 = assay: microbe, parasite or virus in culture; assay type: cell-based; conditions: Acinetobacter baumannii, CDC0036, read-out: Minimum inhibitory concentration (MIC), A. baumannii CDC-0036
# [1] = target: T1, PBP3 from Pseudomonas aeruginosa (PAO1) (Pseudomonas aeruginosa, UniProt G3XD46); assay: Bocillin-FL fluorescence polarization competition binding, P. aeruginosa PBP3; conditions: Binding affinity to P. aeruginosa PBP3; fluorescence polarization competition binding assay using Bocillin-FL; read-out: P. aeruginosa PBP3 Potency
# T1 construct: made in house
# Procedure, shortened: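 Purified PBPs pre-incubated with inhibitor (E. coli PBP3 1.5 μM, 30 min; P. aeruginosa PBP3 0.75 μM, A. baumannii PBP1a 1 μM and PBP3 0.2 μM, 15 min), then Bocillin-FL 0.1 μM (0.05 μM for PBP1a) added; FP read up to 60 min. EC50 = concentration halving bound Bocillin-FL.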
# P. aeruginosa ATCC 35151 = assay: microbe, parasite or virus in culture; assay type: cell-based; conditions: Pseudomonas aeruginosa, ATCC35151, read-out: Minimum inhibitory concentration, P. aeruginosa ATCC 35151
# A. baumannii 1258916 = assay: microbe, parasite or virus in culture; assay type: cell-based, Acinetobacter baumannii; conditions: Acinetobacter baumannii, 1258916, read-out: Minimum inhibitory concentration (MIC), A. baumannii 1258916
# P. aeruginosa CDC-0095 = assay: microbe, parasite or virus in culture; assay type: cell-based; conditions: Pseudomonas aeruginosa, CDC0095, read-out: Minimum inhibitory concentration, P. aeruginosa CDC-0095
# A. baumannii CDC-0033 = assay: microbe, parasite or virus in culture; assay type: cell-based; conditions: Acinetobacter baumannii, CDC0033, read-out: Minimum inhibitory concentration (MIC), A. baumannii CDC-0033
# [2] = system: P. aeruginosa (ΔmexAB-oprM); assay: Broth microdilution MIC in iron-depleted CAMHB (IDM); assay type: cell-based; conditions: Pseudomonas aeruginosa, read-out: Minimum inhibitory concentration, P. aeruginosa ΔmexAB-oprM
# T1 sequence (G3XD46 whole entry): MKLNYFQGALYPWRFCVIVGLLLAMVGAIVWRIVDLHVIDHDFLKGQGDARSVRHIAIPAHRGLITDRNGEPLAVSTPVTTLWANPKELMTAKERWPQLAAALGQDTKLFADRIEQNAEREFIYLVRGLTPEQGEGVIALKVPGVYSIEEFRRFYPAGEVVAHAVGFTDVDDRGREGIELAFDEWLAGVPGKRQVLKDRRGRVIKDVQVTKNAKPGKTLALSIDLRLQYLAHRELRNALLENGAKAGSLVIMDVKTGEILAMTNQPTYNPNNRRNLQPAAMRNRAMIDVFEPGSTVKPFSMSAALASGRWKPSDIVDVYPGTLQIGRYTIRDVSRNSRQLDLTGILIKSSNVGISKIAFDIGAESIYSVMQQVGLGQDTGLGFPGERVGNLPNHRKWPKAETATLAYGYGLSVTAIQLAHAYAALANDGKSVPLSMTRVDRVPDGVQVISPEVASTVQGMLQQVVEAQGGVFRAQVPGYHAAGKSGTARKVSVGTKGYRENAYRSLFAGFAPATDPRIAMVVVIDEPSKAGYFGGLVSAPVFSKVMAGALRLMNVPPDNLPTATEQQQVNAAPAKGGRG
Compound,MIC (A. baumannii CDC-0036) [µg/mL],IC50 [1] [µM],MIC (P. aeruginosa ATCC 35151) [µg/mL],MIC (A. baumannii 1258916) [µg/mL],MIC (P. aeruginosa CDC-0095) [µg/mL],MIC (A. baumannii CDC-0033) [µg/mL],"MIC ([2]; iron-depleted CAMHB (IDM), […]) [µg/mL]",MIC [2] [µg/mL]
"O=C(O)c1c(F)ccc2c1OB(O)[C@@H](NC(=O)[C@H](NC(=O)N1CCN(C3CCN(C(=O)c4cc(F)c(O)c(O)c4Cl)CC3)C1=O)c1ccc(P(=O)(O)O)cc1)C2 (single isomer, unassigned) [Example 495]",< 1,< 10,< 1,< 1,32 to 64,< 1,< 1,–
"O=C(O)c1c(F)ccc2c1OB(O)[C@@H](NC(=O)[C@H](NC(=O)N1CCN(C3CCN(C(=O)Nc4ccc(O)c(O)c4Cl)CC3)C1=O)c1ccc(P(=O)(O)O)cc1)C2 (single isomer, unassigned) [Example 497]",< 1,< 10,< 1,< 1,32 to 64,< 1,< 1,–
"O=C(O)c1c(F)ccc2c1OB(O)[C@@H](NC(=O)[C@H](NC(=O)N1CCN(C3CCN(C(=O)Nc4cc(F)c(O)c(O)c4Cl)CC3)C1=O)c1ccc(P(=O)(O)O)cc1)C2 (single isomer, unassigned) [Example 500]",< 1,< 10,< 1,< 1,< 1,< 1,< 1,–
"O=C(O)c1c(F)ccc2c1OB(O)[C@@H](NC(=O)[C@H](NC(=O)N1CCN(C3CCN(C(=O)c4ccc(O)c(O)c4Cl)CC3)C1=O)c1ccc(P(=O)(O)O)cc1)C2 [Example 494, (R)-3-((R)-2-(3-(1-(2-chloro-3,4-dihydroxybenzoyl)piperidin-4-yl)-2-oxoimidazolidine-1-carboxamido)-2-(4-phosphonophenyl)acetamido)-7-fluoro-2-hydroxy-3,4-dihydro-2H-benzo[e][1,2]oxaborinine-8-carboxylic acid]",< 1,< 10,< 1,< 1,8 to 16,< 1,< 1,–
"O=C(O)c1c(F)ccc2c1OB(O)[C@@H](NC(=O)[C@H](NC(=O)N1CCN(C3CCN(C(=O)c4cc(O)c(O)c(Cl)c4)CC3)C1=O)c1ccc(P(=O)(O)O)cc1)C2 [Example 496, (R)-3-((R)-2-(3-(1-(3-chloro-4,5-dihydroxybenzoyl)piperidin-4-yl)-2-oxoimidazolidine-1-carboxamido)-2-(4-phosphonophenyl)acetamido)-7-fluoro-2-hydroxy-3,4-dihydro-2H-benzo[e][1,2]oxaborinine-8-carboxylic acid]",< 1,< 10,< 1,< 1,8 to 16,< 1,< 1,–
"O=C(O)c1c(F)ccc2c1OB(O)[C@@H](NC(=O)[C@H](NC(=O)N1CCN(Cc3ccc(O)c(O)c3Cl)C(=O)C1=O)c1cc(F)c(P(=O)(O)O)c(F)c1)C2 [Example 502, (R)-3-((R)-2-(4-(2-chloro-3,4-dihydroxybenzyl)-2,3-dioxopiperazine-1-carboxamido)-2-(3,5-difluoro-4-phosphonophenyl)acetamido)-7-fluoro-2-hydroxy-3,4-dihydro-2H-benzo[e][1,2]oxaborinine-8-carboxylic acid]",< 1,< 10,< 1,< 1,2 to 4,< 1,< 1,–
"O=C(NCCN1CCN(C(=O)N[C@@H](C(=O)N[C@H]2Cc3ccc(F)c(C(=O)O)c3OB2O)c2ccc(P(=O)(O)O)cc2)C(=O)C1=O)c1ccc(O)c(O)c1Cl [Example 503, (R)-3-((R)-2-(4-(2-(2-chloro-3,4-dihydroxybenzamido)ethyl)-2,3-dioxopiperazine-1-carboxamido)-2-(4-phosphonophenyl)acetamido)-7-fluoro-2-hydroxy-3,4-dihydro-2H-benzo[e][1,2]oxaborinine-8-carboxylic acid]",2 to 4,< 10,< 1,< 1,< 1,2 to 4,< 1,–
"O=C(O)c1cccc2c1OB(O)[C@@H](NC(=O)[C@H](NC(=O)N1CCN(Cc3cc(F)c(O)c(O)c3Cl)C(=O)C1=O)c1ccc(P(=O)(O)O)cc1)C2 [Example 504, (R)-3-((R)-2-(4-(2-chloro-5-fluoro-3,4-dihydroxybenzyl)-2,3-dioxopiperazine-1-carboxamido)-2-(4-phosphonophenyl)acetamido)-2-hydroxy-3,4-dihydro-2H-benzo[e][1,2]oxaborinine-8-carboxylic acid]",< 1,–,< 1,< 1,< 1,< 1,–,< 1
"O=C(O)c1c(F)ccc2c1OB(O)[C@@H](NC(=O)C(NC(=O)N1CCN(S(=O)(=O)c3ccc(O)c(O)c3Cl)C1=O)c1ccc(P(=O)(O)O)cc1)C2 (stereo partly drawn) [Example 505, (3R)-3-(2-(3-((2-chloro-3,4-dihydroxyphenyl)sulfonyl)-2-oxoimidazolidine-1-carboxamido)-2-(4-phosphonophenyl)acetamido)-7-fluoro-2-hydroxy-3,4-dihydro-2H-benzo[e][1,2]oxaborinine-8-carboxylic acid]",< 1,< 10,< 1,< 1,< 1,< 1,< 1,–
"O=C(O)c1c(F)ccc2c1OB(O)[C@@H](NC(=O)[C@H](NC(=O)N1CCN(S(=O)(=O)c3ccc(O)c(O)c3Cl)C1=O)c1ccc(P(=O)(O)O)cc1)C2 [Example 506, (R)-3-((R)-2-(3-((2-chloro-3,4-dihydroxyphenyl)sulfonyl)-2-oxoimidazolidine-1-carboxamido)-2-(4-phosphonophenyl)acetamido)-7-fluoro-2-hydroxy-3,4-dihydro-2H-benzo[e][1,2]oxaborinine-8-carboxylic acid]",< 1,< 10,< 1,< 1,< 1,< 1,< 1,–
"O=C(O)c1cccc2c1OB(O)[C@@H](NC(=O)[C@H](NC(=O)N1CCN(S(=O)(=O)c3ccc(O)c(O)c3Cl)C1=O)c1ccc(P(=O)(O)O)cc1)C2 [Example 509, (R)-3-((R)-2-(3-((2-chloro-3,4-dihydroxyphenyl)sulfonyl)-2-oxoimidazolidine-1-carboxamido)-2-(4-phosphonophenyl)acetamido)-2-hydroxy-3,4-dihydro-2H-benzo[e][1,2]oxaborinine-8-carboxylic acid]",< 1,< 10,< 1,< 1,< 1,< 1,< 1,–
